Experimental data from paper PMC11472320, “Computationally Driven Discovery of a BCR-ABL1 Kinase Inhibitor with Activity in Multidrug-Resistant Chronic Myeloid Leukemia” (Journal of Medicinal Chemistry, 2024).
Values belong to the molecule of their own block, whether it stands above or below them.

Tests used:
[1] = test system: P-glycoprotein (P-gp); conditions: Figure 1A; cited from earlier work
[2] = in vitro; conditions: dog, MDCK-MDR1
[3] = test system: MDR1; assay: in vitro; conditions: dog, MDCK-MDR1
[4] = in vitro; conditions: human, Caco-2
[5] = test system: Caco-2 cells; assay: Caco-2 permeability; conditions: Table S9
[6] = test system: MDCKII-MDR1 cells; assay: MDCKII-MDR1 permeability; conditions: Table S7
[7] = cited from earlier work

Compound: O=C(Nc1ccc(OC(F)(F)Cl)cc1)c1cnc(N2CC[C@@H](O)C2)c(-c2ccn[nH]2)c1 [Asciminib, asciminib]
P-gp efflux status [1]: P-gp Substrate

Compound: Cc1nc(Nc2ncc(C(=O)Nc3c(C)cccc3Cl)s2)cc(N2CCN(CCO)CC2)n1 [Dasatinib, dasatinib]
P-gp efflux status [1]: P-gp Substrate

recovery [2]: 82.4%
Papp A→B [3]: 0.62 ×10⁻⁶ cm/s
Papp B→A [3]: 13.9 ×10⁻⁶ cm/s
efflux ratio [3]: 22.7
Papp A→B [4]: 0.22 ×10⁻⁶ cm/s
Papp B→A [4]: 12.6 ×10⁻⁶ cm/s
efflux ratio [4]: 58.6
recovery [4]: 89.9%
Recovery% (BL-AP) [5]: 92.72%
Recovery% (BL-AP) [6]: 93.20%
Compound: C[C@H]1O[C@@H](O[C@H]2[C@@H](O)C[C@H](O[C@H]3[C@@H](O)C[C@H](O[C@H]4CC[C@@]5(C)[C@H](CC[C@@H]6[C@@H]5C[C@@H](O)[C@]5(C)[C@@H](C7=CC(=O)OC7)CC[C@]65O)C4)O[C@@H]3C)O[C@@H]2C)C[C@H](O)[C@@H]1O [Digoxin, reference compound]

Compound: Cc1ccc(NC(=O)c2ccc(CN3CCN(C)CC3)cc2)cc1Nc1nccc(-c2cccnc2)n1 [Imatinib, imatinib]
P-gp efflux status [1]: P-gp Substrate

recovery [2]: 112%
Papp A→B [3]: 31.6 ×10⁻⁶ cm/s
Papp B→A [3]: 28.1 ×10⁻⁶ cm/s
efflux ratio [3]: 0.89
Papp A→B [4]: 18.8 ×10⁻⁶ cm/s
Papp B→A [4]: 19.4 ×10⁻⁶ cm/s
recovery [4]: 95.3%
Recovery% (BL-AP) [5]: 95.54%
Recovery% (BL-AP) [6]: 99.15%
Compound: COCCc1ccc(OCC(O)CNC(C)C)cc1 (stereo not drawn) [Metoprolol, reference compound]

Compound: Fc1c2c(cc3ncnc(Nc4ccccc4)c13)OCCO2 [compound 9]
Abraham ANMR Value [7]: 0.10

Compound: COc1c2c(cc3ncnc(Nc4ccccc4)c13)OCCO2 [compound 10]
Abraham ANMR Value [7]: 0.02
